Activity calls are given as the source filed them. No cut-off for these calls is given here.
Legend:
Zika virus [1] = test: Antiviral activity against Zika virus infected in African green monkey Vero E6 cells assessed as inhibition of viral induced cytopathic effect at 10 uM relative to control; format: functional; settings: Vero C1008
[2] = Cytotoxicity against African green monkey Vero E6 cells assessed as cell viability at 10 uM relative to control; format: cell-based, Vero C1008; settings: chlorocebus sabaeus, read-out: Activity
[3] = Cytotoxicity against African green monkey Vero E6 cells assessed as reduction in cell viability; format: cell-based, Vero C1008; settings: chlorocebus sabaeus
Zika virus [4] = test: Antiviral activity against Zika virus infected in African green monkey Vero E6 cells assessed as reduction in viral induced cytopathic effect; format: functional, organism-based; settings: Vero C1008
[5] = Selectivity index, ratio of CC50 for African green monkey Vero E6 cells to EC50 for Zika virus infected in African green monkey Vero E6 cells assessed as inhibition of viral induced cytopathic effect; format: toxicity, Vero C1008; settings: read-out: Ratio CC50/EC50
Zika virus [6] = test: Antiviral activity against Zika virus infected in African green monkey Vero E6 cells assessed as inhibition of viral induced cytopathic effect at 40 uM relative to control; format: functional; settings: Vero C1008
[7] = Cytotoxicity against African green monkey Vero E6 cells assessed as cell viability at 40 uM relative to control; format: cell-based, Vero C1008; settings: chlorocebus sabaeus, read-out: Activity
Zika virus [8] = test: Antiviral activity against Zika virus infected in African green monkey Vero E6 cells assessed as suppression of viral envelope protein expression at 1.25 to 10 uM incubated for 96 hrs by Western blot analysis; format: functional, organism-based; settings: Vero C1008
Zika virus [9] = test: Antiviral activity against Zika virus infected in African green monkey Vero E6 cells assessed as suppression of viral RNA synthesis at 1.25 to 10 uM incubated for 96 hrs by qRT-PCR analysis; format: functional, organism-based; settings: Vero C1008
Zika virus [10] = test: Antiviral activity against Zika virus infected in African green monkey Vero E6 cells assessed as suppression of viral envelope protein expression at 10 uM incubated for 96 hrs by Western blot analysis; format: functional, organism-based; settings: Vero C1008
Zika virus [11] = test: Antiviral activity against Zika virus infected in African green monkey Vero E6 cells assessed as suppression of viral RNA synthesis at 10 uM incubated for 96 hrs by qRT-PCR analysis; format: functional, organism-based; settings: Vero C1008
Zika virus [12] = test: Antiviral activity against Zika virus infected in African green monkey Vero E6 cells assessed as suppression of viral envelope protein expression incubated for 96 hrs by Western blot analysis; format: functional, organism-based; settings: Vero C1008
Zika virus [13] = test: Antiviral activity against Zika virus infected in African green monkey Vero E6 cells assessed as suppression of viral RNA synthesis incubated for 96 hrs by qRT-PCR analysis; format: functional, organism-based; settings: Vero C1008

Structure (SMILES)	inhibition at 10 µM (Zika virus [1]) [%]	viability at 10 µM [2] [%]	other results
CN1CCCN(c2ccc(C#N)c(CN3CCN(Cc4ccccc4)CC3)c2)CC1	84.3	93.6	CC50 [3]: > 100 µM; EC50 (Zika virus [4]): 5.3 µM; selectivity ratio [5]: > 19
CN1CCCN(c2ccc(C#N)c(CN3CCN(Cc4ccc(C(F)(F)F)cc4)CC3)c2)CC1	47.5	81.3	–
NC(=O)c1ncn([C@@H]2O[C@H](CO)[C@@H](O)[C@H]2O)n1 [RIBAVIRIN]	–	–	inhibition at 40 µM (Zika virus [6]): 37%; viability at 40 µM [7]: 94.5%; CC50 [3]: > 100 µM; EC50 (Zika virus [4]): 33 µM; selectivity ratio [5]: > 3
N#Cc1ccc(NCCCn2ccnc2)cc1CN1CCN(Cc2ccc(F)cc2)CC1	58.3	96.5	–
CN(C)CCN(C)c1ccc(C#N)c(CN2CCN(C3CCc4ccccc4C3)CC2)c1 (stereo not given)	81.8	67.8	–
CN1CCCN(c2ccc(C#N)c(CN3CCN(Cc4ccc(F)cc4)CC3)c2)CC1	55.1	79.3	–
CN(CCc1ccccc1)c1ccc(C#N)c(CN2CCN(Cc3ccc(C(F)(F)F)cc3)CC2)c1	35.1	73.6	–
CN(C)CCOc1ccc(C#N)c(CN2CCN(Cc3ccc(C(F)(F)F)cc3)CC2)c1	32.8	80.1	–
CC(c1ccccc1)N1CCN(Cc2ccccc2C#N)CC1 (stereo not given)	35.8	77.5	–
N#Cc1ccc(CN2CCN(Cc3ccc(C#N)cc3)CC2)cc1	12.6	89.6	–
CC(c1ccccc1)N1CCN(Cc2cc(N3CCCN(C)CC3)ccc2C#N)CC1 (stereo not given)	26.7	55.1	–
N#Cc1ccc(NCCN2CCOCC2)cc1CN1CCN(Cc2ccc(C(F)(F)F)cc2)CC1	47.5	79.2	–
CN(C)CCN(C)c1ccc(C#N)c(CN2CCN(Cc3ccc(Cl)cc3)CC2)c1	50.9	82.1	–
N#Cc1ccc(NCCn2cccc2)cc1CN1CCN(Cc2ccc(C(F)(F)F)cc2)CC1	56.2	75.7	–
CN1CCCN(c2ccc(C#N)c(CN3CCN(Cc4ccc(C#N)cc4)CC3)c2)CC1	77.4	76	CC50 [3]: > 100 µM; EC50 (Zika virus [4]): 4.4 µM; selectivity ratio [5]: > 22; inhibition (Zika virus [8]): inactive; inhibition (Zika virus [9]): inactive
CN(C)CCN(C)c1ccc(C#N)c(CN2CCN(Cc3ccc(F)cc3)CC2)c1	60.7	85.1	–
COc1ccc(CN2CCN(Cc3cc(N4CCCN(C)CC4)ccc3C#N)CC2)cc1	59.2	65.8	–
CC(c1ccccc1)N1CCN(Cc2cc(N(C)CCN(C)C)ccc2C#N)CC1 (stereo not given)	43	64.7	–
CC(=O)N1CCN(c2ccc(C#N)c(CN3CCN(Cc4ccc(C(F)(F)F)cc4)CC3)c2)CC1	15.1	89.1	–
CN1CCCN(c2ccc(C#N)c(CN3CCN(Cc4ccccc4C#N)CC3)c2)CC1	36.2	87.1	–
CN(C)CCN(C)c1ccc(C#N)c(CN2CCN(Cc3cccc(Cl)c3)CC2)c1	54.8	73.6	–
N#Cc1ccc(NCCCn2ccnc2)cc1CN1CCN(Cc2ccc(C(F)(F)F)cc2)CC1	66.5	70	CC50 [3]: 23.7 µM; EC50 (Zika virus [4]): 4.9 µM; selectivity ratio [5]: 5; inhibition (Zika virus [10]): Active; inhibition (Zika virus [11]): Active
CN1CCN(c2ccc(C#N)c(CN3CCN(Cc4ccc(C(F)(F)F)cc4)CC3)c2)CC1	0.3	84.5	–
CN(C)CCN(C)c1ccc(C#N)c(CN2CCN(Cc3ccccc3Cl)CC2)c1	70.4	86.1	CC50 [3]: > 100 µM; EC50 (Zika virus [4]): 5.1 µM; selectivity ratio [5]: > 20; inhibition (Zika virus [12]): Dose-dependent effect; inhibition (Zika virus [13]): Dose-dependent effect
N#Cc1ccc(N2CCNCC2)cc1CN1CCN(Cc2ccc(C(F)(F)F)cc2)CC1	0.5	89	–
N#Cc1ccccc1CN1CCN(Cc2ccccc2C#N)CC1	34.7	93.8	–
CN(C)CCN(C)c1ccc(C#N)c(CN2CCN(Cc3ccc(C#N)cc3)CC2)c1	75.5	77.4	CC50 [3]: 66 µM; EC50 (Zika virus [4]): 5.6 µM; selectivity ratio [5]: 10
CN(C)c1ccc(C#N)c(CN2CCN(Cc3ccc(C(F)(F)F)cc3)CC2)c1	19.2	90.5	–
